Reference: patent publication US20150224085A1, “METHOD OF ADMINISTERING A 5,5-FUSED HETEROARYLENE HEPATITIS C VIRUS INHIBITOR FOR TREATING OF PREVENTING HEPATITIS C VIRUS INFECTION” (priority 2012, published 2015)
Converted amounts (≈) assume the structure as drawn.

Experiments:
[1] = in vivo
Description: (§1) The phase I/IIa study was designed to evaluate safety and tolerability, pharmacokinetics (PK), food effect, and antiviral activity with regard to the Compound. The key safety parameters that were evaluated in the trial include adverse events (AEs), physical examination, vital signs, 12-lead electrocardiogram (ECG), and standard safety laboratory tests. The key antiviral activity parameters that were evaluated in the trial include changes in plasma HCV RNA and emergence of resistance mutations. The key pharmacokinetic parameters that were evaluated in the trial include plasma and urine concentrations of the Compound.
The Compound was first evaluated in a randomized, double-blind, placebo-controlled, sequential dose escalation study in 48 healthy subjects. For each cohort, there were 6 subjects to receive the Compound and 2 subjects to receive placebo. Except cohort 5a, the Compound was administered under fasted conditions.
(§2) In Group B, the Compound was evaluated in an open-label, single day study in 18 subjects with chronic HCV Genotype 1, 2, or 3 infection. […] For all cohorts, dosing was under fasted in this study.

HCV Genotype 1a = assay: Phase I/IIa Group C: HCV RNA reduction, 3-day dosing, Genotype 1a; type: in vivo, hepatitis C virus
Description: as §1
(§3) In the phase I/IIa study, plasma HCV RNA was quantitated using a validated commercial assay (COBAS® TAQMAN®) with a lower limit of quantitation of 25 IU/mL. HCV RNA genotyping was performed at Baseline using the Versant HCV Genotype Assay (LiPA) 2.0.
(§4) In Group C, the Compound was evaluated in a randomized, double-blind, placebo-controlled, parallel dosing study in 34 treatment-naive, genotype 1 HCV-infected subjects.
(§5) For all cohorts, dosing was under fasted in this study.

[2] = 28-day toxicity study in cynomolgus monkeys
Description: (§6) Safety margins were calculated based upon proposed human doses in the first-in-human trial and human equivalent dose (HED) calculations derived from the two 28-day toxicology studies in mice and monkeys. This approach is consistent with the United States Food and Drug Administration Guidance for Industry entitled “Estimating the Maximum Safe Starting Dose in Initial Clinical Trials for Therapeutics in Adult Healthy Volunteers,” July 2005.

[3] = 28-day toxicity study in mice
Description: as §6

[4] = system: HCV Genotypes 1, 2, 3, and 4; assay: Phase I/IIa Groups C and D: antiviral activity across genotypes; type: in vivo, hepatitis C virus
Description: as §1, §3, §4
(§7) In Group D, the Compound was evaluated in an randomized, double-blind, placebo-controlled, parallel dosing study in 30 treatment-naive, genotypes 2, 3, and 4 HCV-infected subjects.
as §5

HCV Genotype 4 = assay: Phase I/IIa Group D: HCV RNA reduction, 3-day dosing, Genotype 4; type: in vivo, hepatitis C virus; conditions: n = 4
Description: as §1, §3, §7, §5

HCV Genotype 1b [5] = assay: Phase I/IIa Group C: HCV RNA reduction, 3-day dosing, Genotype 1b; type: in vivo, hepatitis C virus
Description: as §1, §3, §4, §5

HCV Genotype 1b [6] = assay: Phase I/IIa Group B: plasma HCV RNA reduction after single dose, Genotype 1b; type: in vivo, hepatitis C virus; conditions: 1 subject
Description: as §1, §3, §2

[7] = system: least susceptible HCV genotype; assay: Protein-binding adjusted EC90; type: cell-based; conditions: Hepatitis C virus, read-out: protein-binding adjusted EC90
HCV Genotype 3 = assay: Phase I/IIa Group B: plasma HCV RNA reduction after single dose, Genotype 3; type: in vivo, hepatitis C virus; conditions: 1 subject
Description: as §1, §3, §2

HCV Genotype 2 = assay: Phase I/IIa Group D: HCV RNA reduction, 3-day dosing, Genotype 2; type: in vivo, hepatitis C virus; conditions: for Mean (Range) Maximal HCV RNA Reduction from Baseline: n = 4
Description: as §1, §3, §7, §5

[8] = 28 days, doses up to 250 mg/kg/day
[9] = proposed human dose 1 mg/subject/day (0.02 mg/kg/day)
[10] = proposed human dose 5 mg/subject/day (0.08 mg/kg/day)
[11] = proposed human dose 10 mg/subject/day (0.17 mg/kg/day)
[12] = proposed human dose 25 mg/subject/day (0.42 mg/kg/day)
[13] = proposed human dose 50 mg/subject/day (0.83 mg/kg/day)

COC(=O)N[C@H](C(=O)N1CCC[C@H]1c1nc2cc(-c3csc4c(-c5ccc(-c6cnc([C@@H]7CCCN7C(=O)[C@H](NC(=O)OC)c7ccccc7)[nH]6)cc5)csc34)ccc2[nH]1)C(C)C [the Compound, [(S)-1-((S)-2-{6-[6-(4-{(S)-2-[1-((R)-2-methoxycarbonylamino-2-phenyl-acetyl)-pyrrolidin-2-yl]-3H-imidazol-4-yl}-phenyl)-thieno[3,2-b]thiophen-3-yl]-1H-benzoimidazol-2-yl}-pyrrolidine-1-carbonyl)-2-methyl-propyl]-carbamic acid methyl ester]
dose-limiting toxicity [1]: no subject met protocol-defined criteria for a dose-limiting toxicity
intensity of adverse events [1]: mild to moderate
Mean (Range) Maximal HCV RNA Reduction from Baseline (HCV Genotype 1a; 25 mg QD x 3 days, n = 5): 3.3 (2.9-3.7) log10 IU/mL
Mean (Range) Maximal HCV RNA Reduction from Baseline (HCV Genotype 1a; 50 mg BID x 3 days, n = 6): 3.2 (2.7-3.8) log10 IU/mL
Mean (Range) Maximal HCV RNA Reduction from Baseline (HCV Genotype 1a; 50 mg QD x 3 days, n = 6): 3.6 (3.3-3.9) log10 IU/mL
Mean (Range) Maximal HCV RNA Reduction from Baseline (HCV Genotype 1a; 100 mg QD x 3 days, n = 6): 3.5 (2.6-4.3) log10 IU/mL
no observable effect level (NOEL) ([2]; 28-day monkey study): 250 mg/kg/day
toxicological target [2, 8]: did not define any toxicological target
increase in plasma levels with dose ([2]; cynomolgus monkey, in vivo): little or no increase
Margin of Safety, Monkey [2, 9]: 807 fold
Margin of Safety, Monkey [2, 10]: 204 fold
Margin of Safety, Monkey [2, 11]: 95 fold
Margin of Safety, Monkey [2, 12]: 38 fold
Margin of Safety, Monkey [2, 13]: 19 fold
no observable effect level (NOEL) ([3]; 28-day mouse study): 150 mg/kg/day
toxicological target [3, 8]: did not define any toxicological target
NOAEL at 28 days ([3]; both, mouse, in vivo): 250 mg/kg/day
liver histology ([3]; males and females, 250 mg/kg/day): minimal to mild diffuse hypertrophy of centrilobular hepatocytes
increase in plasma levels with dose ([3]; mouse, in vivo, 150 mg/kg/day): little or no increase
Mean ALT values at Day 29 ([3]; mouse, in vivo, 250 mg/kg/day): 88.4 U/L
Margin of Safety, Mouse [3, 9]: 610 fold
Margin of Safety, Mouse [3, 10]: 153 fold
Margin of Safety, Mouse [3, 11]: 72 fold
Margin of Safety, Mouse [3, 12]: 29 fold
Margin of Safety, Mouse [3, 13]: 15 fold
antiviral activity ([4]; Genotype 1, 2, 3, and 4 HCV-infected subjects): potent, pan-genotypic antiviral activity
rebound (>1.0 log10 IU/mL increase over nadir) ([4]; during the 3 days of dosing): No subject experienced a rebound
mean maximal HCV RNA reductions ([4]; total dose of 100 mg/day for 3 days, Genotypes 1, 3, and 4): approximately 3.5 log10 IU/mL
Mean (Range) Maximal HCV RNA Reduction from Baseline (HCV Genotype 4; 50 mg BID x 3 days): 3.9 (3.4-4.5) log10 IU/mL
Mean (Range) Maximal HCV RNA Reduction from Baseline (HCV Genotype 4; 100 mg QD x 3 days): 3.6 (2.3-4.6) log10 IU/mL
Mean (Range) Maximal HCV RNA Reduction from Baseline (HCV Genotype 1b [5]; 25 mg QD x 3 days, n = 3): 3.0 (2.0-4.2) log10 IU/mL
Mean (Range) Maximal HCV RNA Reduction from Baseline (HCV Genotype 1b [5]; 50 mg QD x 3 days, n = 2): 4.3 (4.1-4.5) log10 IU/mL
Maximum Viral Load Reduction after Single Dose (HCV Genotype 1b [6]; 1 mg single dose): 3.1^2 log10 IU/mL
Maximum Viral Load Reduction after Single Dose (HCV Genotype 1b [6]; 10 mg single dose): 3.7^2 log10 IU/mL
Maximum Viral Load Reduction after Single Dose (HCV Genotype 1b [6]; 50 mg single dose): 3.2^2 log10 IU/mL
Maximum Viral Load Reduction after Single Dose (HCV Genotype 1b [6]; 100 mg single dose): 3.7^2 log10 IU/mL
EC90 [7]: ~2.3 ng/mL (≈ 2.6 nM)
Maximum Viral Load Reduction after Single Dose (HCV Genotype 3; 25 mg single dose): 2.2 log10 IU/mL
Maximum Viral Load Reduction after Single Dose (HCV Genotype 3; 50 mg single dose): 3.7 log10 IU/mL
Maximum Viral Load Reduction after Single Dose (HCV Genotype 3; 100 mg single dose): 3.3 log10 IU/mL
Mean (Range) Maximal HCV RNA Reduction from Baseline (HCV Genotype 2; 50 mg BID x 3 days): 2.0 (0.5-4.0) log10 IU/mL
Mean (Range) Maximal HCV RNA Reduction from Baseline (HCV Genotype 2; 100 mg QD x 3 days): 2.0 (0.3-4.1) log10 IU/mL
Mean Max Viral Load Response (HCV Genotype 2; subjects with L31 at BL, L31M at Day 4, 2 subjects): −2.83 log10 IU/mL
Mean Max Viral Load Response (HCV Genotype 2; subjects with L31 at BL, low VL at Day 4 (<1,000 IU/mL), 2 subjects): −4.06 log10 IU/mL
Mean Max Viral Load Response (HCV Genotype 2; subjects with M31 at BL, 3 subjects): −0.45 log10 IU/mL
mean maximal viral load reduction (HCV Genotype 2; total daily dose of 100 mg for 3 days): 2.0 log10 IU/mL
